≈ marks a conversion by molar mass, not a printed value. Like-named read-outs stand apart in the source and are kept apart here. Non-standard residues stand in square brackets, D forms with d. Residues, ends and D or L forms follow the SMILES beside them. d1Nal = N[C@H](Cc1cccc2ccccc12)C(=O)O
Experiments:
[1] = system: Candida; assay type: cell-based
Experimental: Control tubes containing only water or formulation buffer were prepared for each isolate. Initial growth controls were determined by removing 10 μL from the water control tube and diluting it by 100 fold. From this dilution, 10 μL was used for inoculation and for spreading over the surface onto Laked Blood Agar (LBA) (Anaerobe Systems, Morgan Hill, Calif.) plates. The tubes and plates were incubated in an anaerobic atmosphere at 37° C. for 48 h. […] MBC50 and 90 values represent where 50 and 90%, respectively, of the tested strain's MBC values are equal to or less than the indicated concentration.

[2] = Additional studies: intravenous administration safety; assay type: in vivo; conditions: intravenously
Experimental: In additional studies in an acute peritonitis model, mice were challenged intraperitoneally with 1.4×10^7 CFU E. coli 07:K1 and treated intraperitoneally with XMP.629 at 1, 3, or 10 mg/kg or saline. Mice were observed twice daily and mortality was recorded for seven days. Statistical comparisons between the treatment groups and saline were performed using a Chi Square test. […] At 10 mg/kg, 87% protection was observed. In additional studies, XMP.629 was safely administered at a dose of 20 mg/kg intravenously.

[3] = system: intact and abraded skin of New Zealand White rabbits; experiment: Rabbit primary skin irritation test (Draize); assay type: in vivo; conditions: 4 hour exposure
Experimental: XMP.629 was evaluated for any potential dermal irritant effects in the rabbit primary skin irritation test for this dermal irritation study, XMP.629 was tested on intact and abraded skin in three New Zealand White rabbits. All animals received 0.5 mL of XMP.629 on each intact and abraded dorsal skin application site. This was accomplished by placing a gauze patch directly on the skin of each application site and saturating the patch with 0.5 mL of the XMP.629 solution. The application sites were then wrapped with gauze bandaging and non-irritating semi-occlusive tape. Elizabethan collars were then applied for the 4 hour exposure period. At the end of the 4 hour exposure period, the collars and wrappings were removed and any residual XMP.629 removed. The test sites were evaluated using the standard Draize scoring system (Draize et al., 1944, J. Pharmacol, Exp. Ther. 82: 377-390) for erythema and edema within 30 to 60 minutes and 24, 48, and 72 hours following patch removal.

[4] = system: Hanford minipigs; experiment: Minipig subchronic dermal toxicity test with toxicokinetics; assay type: in vivo; conditions: one 70 μg/kg/day female
Experimental: XMP.629 was evaluated for potential toxicity when administered by a single daily dermal application to Hanford minipigs over the course of one month. The study group design and dosage levels tested were as follows:
The test article or placebo control was administered once daily to the dorsal surface of each animal for 29 consecutive days. General health, mortality and moribundity checks were conducted twice daily. General health examinations were performed by a veterinarian once prior to in-life initiation and weekly during the study. The animals were examined daily for overt toxic signs (post-dose observations) between one and two hours following dosing. Detailed clinical observations and individual body weights were performed weekly, beginning on study day 0, and on the day of scheduled euthanasia. Dermal scoring was performed once per week and on the day of scheduled euthanasia.
Hematology, coagulation and clinical chemistry parameters were evaluated once prior to in-life initiation (day -9) and near the conclusion of the dosing phase (day 26). Blood samples were also collected for anti-test article analyses on study day 26 and toxicokinetic (TK) analyses on study days 0 and 27. Ophthalmological examinations were performed once prior to in-life initiation and just prior to the end of the dosing phase. […]

[5] = system: marginal ear vein of rabbits; experiment: Intravenous efficacy tests in rabbits (local vein findings); assay type: in vivo, rabbit; conditions: multiple infusions, 1-20 mg/kg/day
Experimental: A series of efficacy studies with XMP.629 was conducted where slow IV push or short term (5 to 30 min) intravenous infusions were given through the marginal ear vein at 0.1 to 1.0 mg/mL to rabbits, some of whom were previously infected with Staphylococcus aureus, E. coli, or other bacteria, or Candida albicans. […] Due to the swelling, the veins could not be infused after two to five administrations of 1-20 mg/kg/day of XMP.629. […] Secondary changes in the surrounding tissue included edema, regional fibroplasia, acute hemorrhage, and regional hemorrhagic necrosis, as well as the presence of inflammation. These macroscopic changes were similar to the changes observed in the tail veins of rats and mice in other efficacy studies conducted.

[6] = system: Propionibacterium acnes; conditions: Propionibacterium acnes 6919
[7] = system: Staphylococcus aureus
[8] = system: E. coli; conditions: for MBC: agent alone
[9] = 72 hours following dosing
[10] = design: decrease of plasma levels within the first 12 hours: dose or concentration left out as unconfirmed; conditions: for T1/2α / T1/2β / T1/2γ / T1/4 average / Vc: Sinclair mini-pig
[11] = 0.05 mg/kg XMP.629 acetate short IV infusion
[12] = 0.2 mg/kg XMP.629 acetate short IV infusion

## CC(C)C[C@@H](NC(=O)[C@H](N)CCCCN)C(=O)N[C@H](Cc1ccccc1)C(=O)N[C@H](CCCNC(=N)N)C(=O)N[C@H](Cc1cccc2ccccc12)C(=O)N[C@H](CCC(N)=O)C(=O)N[C@H](C)C(=O)N[C@H](CCCCN)C(=O)N[C@H](Cc1cccc2ccccc12)C(N)=O [XMP.629, NH2-lys-leu-phe-arg-(3-(1-naphthyl)-ala)-gln-ala-lys-(3-(1-naphthyl)-ala)-CONH2] (H-[dK][dL][dF][dR][d1Nal][dQ][dA][dK][d1Nal]-NH2)
[1]
  MIC90, XMP.629 data reported as MBC values: 1 µg/mL (≈ 0.779 µM)
[1]; in FB (formulation buffer)
  MIC90, XMP.629 data reported as MBC values: 0.5 µg/mL (≈ 0.39 µM)
[2]
  dose safely administered: 20 mg/kg
[3]; abraded skin
  dermal irritation: only mildly irritating
[3]; intact skin
  dermal irritation: not irritating
[4]
  Dermal observations: single incidence of grade 2 (well defined) erythema
[5]
  gross macroscopic changes at the infused vein: swelling and hemorrhage into the perivascular space
[6]
  Minimum Inhibitory Concentrations: 1.00 µg/mL
[7]; Staphylococcus aureus 6258
  Minimum Inhibitory Concentrations: 2.00 µg/mL
[7]; Staphylococcus aureus 11371
  Minimum Inhibitory Concentrations: 2.00 µg/mL
[7]; Staphylococcus aureus 12598
  Minimum Inhibitory Concentrations: 2.00 µg/mL
[7]; Staphylococcus aureus 19636
  Minimum Inhibitory Concentrations: 2.00 µg/mL
[7]; Staphylococcus aureus BAA-38 (MRSA)
  Minimum Inhibitory Concentrations: 2.00 µg/mL
[8]; E. coli 706U2-1081
  MBC: 16 µg/mL (≈ 12.5 µM)
[8]; E. coli 4104 LF, XMP.629 alone
  XMP.629 MBC: 16 µg/mL
[8]; E. coli 4104 LF
  MBC: 8 µg/mL (≈ 6.23 µM)
[9]
  radioactivity remained in the body (carcass): 79.7%
[10]; [11]
  T1/2α: 5.46 min
  T1/2β: 1.28 h
  T1/2γ: 15.0 h
  T1/4 average: 0.36 h
  Vc: 0.0674 L/kg
[10]; [12]
  T1/2α: 1.86 min
  T1/2β: 1.03 h
  T1/2γ: 15.4 h
  T1/4 average: 0.58 h
  Vc: 0.1018 L/kg
[10]; short IV infusion
  decrease of plasma levels within the first 12 hours: 100 fold

From US20050148495A1, “Methods and materials including for treating acne” (priority 2003, published 2005)
